Reference: patent publication US20260327214A1, “1,3,4-OXADIAZOLE DERIVATIVE COMPOUNDS AS HISTONE DEACETYLASE 6 INHIBITOR, AND USES THEREOF” (CHONG KUN DANG PHARMACEUTICAL CORP., priority 2022, published 2026)

Experiments:
human recombinant HDAC1 = biological target: T1, human recombinant HDAC1 (Homo sapiens, UniProt Q13547); experiment: HDAC1 enzyme activity inhibition test (HDAC Fluorometric Drug Discovery Kit); type: biochemical; conditions: 30° C., 60 minutes, 10 μM substrate
T1 construct: purchased Enzo Life Science BML-SE456
Procedure: (§1) The following experiment was conducted to confirm the HDAC6 selectivity of the compound represented by Chemical Formula I of the present invention through the HDAC1 and HDAC6 enzyme activity inhibition test.
(§2) HDAC enzyme activity was measured using HDAC Fluorometric Drug Discovery Kit (BML-AK511, 516) manufactured by Enzo Life Science. For the HDAC1 enzyme activity test, human recombinant HDAC1 (BML-SE456) was used as an enzyme source and Fluor de Lys-®-″SIRT1 (BNL-KI177) was used as a substrate. The 5-fold diluted compound was dispensed in a 96-well plate, 0.3 μg of enzyme and 10 μM substrate were added to each well and reacted at 30° C. for 60 minutes, and Fluor de Lys® Developer II(BML-KI176) was added and reacted for 30 minutes to complete the reaction. Then, the fluorescence value (Ex 360, Em 460) was measured using a multiplate reader (Flexstation 3, Molecular Device). The HDAC6 enzyme was tested using the same protocol as the HDAC1 enzyme activity test method employing human recombinant HDAC6 (382180) from Calbiochem. For the final result, each […] value was calculated using the GraphPad Prism 4.0 program.

human recombinant HDAC6 = biological target: T2, human recombinant HDAC6 (Homo sapiens, UniProt Q9UBN7); experiment: HDAC6 enzyme activity inhibition test (HDAC Fluorometric Drug Discovery Kit); type: biochemical; conditions: for HDAC6 selectivity (fold): HDAC6 over HDAC1; for IC50: human recombinant HDAC6, same protocol as HDAC1
T2 construct: purchased Calbiochem 382180
T2 sequence (Q9UBN7 1-1215): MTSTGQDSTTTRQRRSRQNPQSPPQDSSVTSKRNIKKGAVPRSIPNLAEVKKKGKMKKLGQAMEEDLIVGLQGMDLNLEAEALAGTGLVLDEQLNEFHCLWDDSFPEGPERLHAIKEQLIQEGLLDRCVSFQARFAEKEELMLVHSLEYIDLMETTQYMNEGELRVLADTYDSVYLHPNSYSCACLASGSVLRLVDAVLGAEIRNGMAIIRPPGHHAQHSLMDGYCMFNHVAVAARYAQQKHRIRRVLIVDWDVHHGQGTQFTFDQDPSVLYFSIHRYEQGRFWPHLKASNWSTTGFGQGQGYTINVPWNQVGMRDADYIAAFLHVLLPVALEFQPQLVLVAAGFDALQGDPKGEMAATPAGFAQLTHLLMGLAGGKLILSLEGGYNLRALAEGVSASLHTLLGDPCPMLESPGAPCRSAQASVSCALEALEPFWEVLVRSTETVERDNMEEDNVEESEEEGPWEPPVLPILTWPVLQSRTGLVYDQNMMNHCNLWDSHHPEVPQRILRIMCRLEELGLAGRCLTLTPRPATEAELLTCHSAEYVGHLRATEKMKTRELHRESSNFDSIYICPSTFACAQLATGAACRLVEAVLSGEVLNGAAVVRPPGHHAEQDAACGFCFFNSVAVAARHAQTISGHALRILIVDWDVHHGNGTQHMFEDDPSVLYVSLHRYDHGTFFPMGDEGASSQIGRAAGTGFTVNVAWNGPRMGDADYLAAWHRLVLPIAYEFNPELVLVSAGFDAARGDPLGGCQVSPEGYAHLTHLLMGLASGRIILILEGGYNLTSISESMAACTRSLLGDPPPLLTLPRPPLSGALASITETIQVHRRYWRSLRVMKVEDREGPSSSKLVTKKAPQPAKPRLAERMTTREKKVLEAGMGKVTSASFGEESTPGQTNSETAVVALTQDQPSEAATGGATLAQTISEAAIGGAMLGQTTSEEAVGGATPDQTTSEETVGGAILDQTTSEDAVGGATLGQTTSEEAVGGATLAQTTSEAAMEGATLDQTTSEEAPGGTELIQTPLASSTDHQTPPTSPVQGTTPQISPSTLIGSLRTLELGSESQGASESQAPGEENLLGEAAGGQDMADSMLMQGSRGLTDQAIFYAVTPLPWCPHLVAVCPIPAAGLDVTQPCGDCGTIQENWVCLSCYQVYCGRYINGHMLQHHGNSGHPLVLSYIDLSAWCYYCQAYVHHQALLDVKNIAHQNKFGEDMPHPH
Procedure: as §1, §2

T1 sequence (Q13547 whole entry): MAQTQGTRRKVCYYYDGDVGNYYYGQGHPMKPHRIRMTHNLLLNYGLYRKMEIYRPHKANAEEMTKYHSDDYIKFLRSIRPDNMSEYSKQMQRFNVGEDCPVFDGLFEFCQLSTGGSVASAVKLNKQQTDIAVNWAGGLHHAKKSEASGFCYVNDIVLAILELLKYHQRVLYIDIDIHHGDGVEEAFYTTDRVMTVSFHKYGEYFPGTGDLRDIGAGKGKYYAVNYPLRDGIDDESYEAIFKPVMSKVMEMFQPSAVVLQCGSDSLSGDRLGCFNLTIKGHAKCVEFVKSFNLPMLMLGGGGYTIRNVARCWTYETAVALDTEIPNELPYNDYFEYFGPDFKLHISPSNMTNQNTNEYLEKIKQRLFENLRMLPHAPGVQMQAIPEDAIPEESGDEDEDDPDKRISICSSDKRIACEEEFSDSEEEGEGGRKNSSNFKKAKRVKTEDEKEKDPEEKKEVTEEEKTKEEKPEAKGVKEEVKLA

SMILES | IC50 (human recombinant HDAC1) | HDAC6 selectivity (fold) (human recombinant HDAC6) | IC50 (human recombinant HDAC6)
O=c1oc(-c2cccc(C3CCN(C4COC4)CC3)c2)nn1Cc1ccc(-c2nnc(C(F)F)o2)cn1 [Compound 9, 3-[[5-[5-(difluoromethyl)-1,3,4-oxadiazol-2-yl]-2-pyridyl]methyl]-5-[3-[1-(oxetane-3-yl)-4-piperidyl]phenyl]-1,3,4-oxadiazol-2-one] | > 50 µM | 585 fold | 85.5 nM
CC1CC(N2CCC(c3cccc(-c4nn(Cc5ccc(-c6nnc(C(F)F)o6)cn5)c(=O)o4)c3)CC2)C1 (stereo not drawn) [Compound 10, 3-[[5-[5-(difluoromethyl)-1,3,4-oxadiazol-2-yl]-2-pyridyl]methyl]-5-[3-[1-(3-methylcyclobutyl)-4-piperidyl]phenyl]-1,3,4-oxadiazol-2-one] | > 50 µM | 666 fold | 75.1 nM
CN1CCc2ccc(-c3nn(Cc4ccc(-c5nnc(C(F)F)o5)cn4)c(=O)o3)cc2C1 [Compound 12, 3-[[5-[5-(difluoromethyl)-1,3,4-oxadiazol-2-yl]-2-pyridyl]methyl]-5-(2-methyl-3,4-dihydro-1H-isoquinolin-7-yl)-1,3,4-oxadiazol-2-one] | > 50 µM | 607 fold | 82.4 nM
CC(C)N1CCc2ccc(-c3nn(Cc4ccc(-c5nnc(C(F)F)o5)cn4)c(=O)o3)cc2C1 [Compound 13, 3-[[5-[5-(difluoromethyl)-1,3,4-oxadiazol-2-yl]-2-pyridyl]methyl]-5-(2-isopropyl-3,4-dihydro-1H-isoquinolin-7-yl)-1,3,4-oxadiazol-2-one] | > 50 µM | 475 fold | 105 nM
O=c1oc(-c2ccc3c(c2)CN(C2CCC2)CC3)nn1Cc1ccc(-c2nnc(C(F)F)o2)cn1 [Compound 14, 5-(2-cyclobutyl-3,4-dihydro-1H-isoquinolin-7-yl)-3-[[5-[5-(difluoromethyl)-1,3,4-oxadiazol-2-yl]-2-pyridyl]methyl]-1,3,4-oxadiazol-2-one] | > 50 µM | 478 fold | 105 nM
O=c1oc(-c2ccccc2F)nn1Cc1ccc(-c2nnc(C(F)F)o2)cn1 [Compound 15, 3-[[5-[5-(difluoromethyl)-1,3,4-oxadiazol-2-yl]-2-pyridyl]methyl]-5-(2-fluorophenyl)-1,3,4-oxadiazol-2-one] | > 50 µM | 524 fold | 95.5 nM
O=c1oc(-c2ccsc2)nn1Cc1ccc(-c2nnc(C(F)F)o2)cn1 [Compound 16, 3-[[5-[5-(difluoromethyl)-1,3,4-oxadiazol-2-yl]-2-pyridyl]methyl]-5-(3-thienyl)-1,3,4-oxadiazol-2-one] | > 50 µM | 551 fold | 90.8 nM
O=c1oc(-c2ccc3cccnc3c2)nn1Cc1ccc(-c2nnc(C(F)F)o2)cn1 [Compound 17, 3-[[5-[5-(difluoromethyl)-1,3,4-oxadiazol-2-yl]-2-pyridyl]methyl]-5-(7-quinolyl)-1,3,4-oxadiazol-2-one] | > 50 µM | 1089 fold | 45.9 nM
O=c1oc(-c2ccc3scnc3c2)nn1Cc1ccc(-c2nnc(C(F)F)o2)cn1 [Compound 18, 5-(1,3-benzothiazol-5-yl)-3-[[5-[5-(difluoromethyl)-1,3,4-oxadiazol-2-yl]-2-pyridyl]methyl]-1,3,4-oxadiazol-2-one] | > 50 µM | 768 fold | 65.1 nM
Cn1ccc2cc(-c3nn(Cc4ccc(-c5nnc(C(F)F)o5)cn4)c(=O)o3)ccc21 [Compound 19] | > 50 µM | 1511 fold | 33.1 nM
O=c1oc(-c2ccc(N3CCNCC3)cc2)nn1Cc1ccc(-c2nnc(C(F)F)o2)cn1 [Compound 20, 3-[[5-[5-(difluoromethyl)-1,3,4-oxadiazol-2-yl]-2-pyridyl]methyl]-5-(4-piperazin-1-ylphenyl)-1,3,4-oxadiazol-2-one] | > 50 µM | 653 fold | 76.6 nM
CN1CCN(c2ccc(-c3nn(Cc4ccc(-c5nnc(C(F)F)o5)cn4)c(=O)o3)cc2)CC1 [Compound 21, 3-[[5-[5-(difluoromethyl)-1,3,4-oxadiazol-2-yl]-2-pyridyl]methyl]-5-[4-(4-methylpiperazin-1-yl)phenyl]-1,3,4-oxadiazol-2-one] | > 50 µM | 446 fold | 112 nM

The next lines start with the values.

IC50 (human recombinant HDAC1) | HDAC6 selectivity (fold) (human recombinant HDAC6) | IC50 (human recombinant HDAC6) | SMILES
> 50 µM | 416 fold | 120 nM | O=c1oc(-c2ccccc2)nn1Cc1ccc(-c2nnc(C(F)F)o2)cn1 [Compound 1, 3-((5-(5-(difluoromethyl)-1,3,4-oxadiazol-2-yl)pyridin-2-yl)methyl)-5-phenyl-1,3,4-oxadiazol-2 (3H)-one]
> 50 µM | 506 fold | 98.8 nM | O=c1oc(-c2ccc(CN3CCCC3)cc2)nn1Cc1ccc(-c2nnc(C(F)F)o2)cn1 [Compound 2, 3-((5-(5-(difluoromethyl)-1,3,4-oxadiazol-2-yl)pyridin-2-yl)methyl)-5-(4-(pyrrolidin-1-ylmethyl)phenyl)-1,3,4-oxadiazol-2(3H)-one]
> 50 µM | 3497 fold | 14.3 nM | O=c1oc(-c2ccc3[nH]ccc3c2)nn1Cc1ccc(-c2nnc(C(F)F)o2)cn1 [Compound 3, 3-[[5-[5-(difluoromethyl)-1,3,4-oxadiazol-2-yl]-2-pyridyl]methyl]-5-(1H-indol-5-yl)-1,3,4-oxadiazol-2-one]
> 50 µM | 595 fold | 84.1 nM | CC1CCN(Cc2ccc(-c3nn(Cc4ccc(-c5nnc(C(F)F)o5)cn4)c(=O)o3)c(F)c2)CC1 [Compound 4, 3-[[5-[5-(difluoromethyl)-1,3,4-oxadiazol-2-yl]-2-pyridyl]methyl]-5-[2-fluoro-4-[(4-methyl-1-piperidyl)methyl]phenyl]-1,3,4-oxadiazol-2-one]
> 50 µM | 589 fold | 84.9 nM | O=c1oc(-c2cccs2)nn1Cc1ccc(-c2nnc(C(F)F)o2)cn1 [Compound 5, 3-[[5-[5-(difluoromethyl)-1,3,4-oxadiazol-2-yl]-2-pyridyl]methyl]-5-(2-thienyl)-1,3,4-oxadiazol-2-one]
> 50 µM | 1078 fold | 46.4 nM | CC(C)N1CCN(c2cccc(-c3nn(Cc4ccc(-c5nnc(C(F)F)o5)cn4)c(=O)o3)n2)CC1 [Compound 6, 3-[[5-[5-(difluoromethyl)-1,3,4-oxadiazol-2-yl]-2-pyridyl]methyl]-5-[6-(4-isopropylpiperazin-1-yl)-2-pyridyl]-1,3,4-oxadiazol-2-one]
> 50 µM | 600 fold | 83.3 nM | O=c1oc(-c2cccc(N3CCN(C4COC4)CC3)n2)nn1Cc1ccc(-c2nnc(C(F)F)o2)cn1 [Compound 7, 3-[[5-[5-(difluoromethyl)-1,3,4-oxadiazol-2-yl]-2-pyridyl]methyl]-5-[6-[4-(oxetane-3-yl)piperazin-1-yl]-2-pyridyl]-1,3,4-oxadiazol-2-one]
> 50 µM | 546 fold | 91.6 nM | CN1CCC(c2cccc(-c3nn(Cc4ccc(-c5nnc(C(F)F)o5)cn4)c(=O)o3)c2)CC1 [Compound 8, 3-[[5-[5-(difluoromethyl)-1,3,4-oxadiazol-2-yl]-2-pyridyl]methyl]-5-[3-(1-methyl-4-piperidyl)phenyl]-1,3,4-oxadiazol-2-one]
